Test results: the supplement of paper PMC10307832

Tests used:
Experiment in all cases: relative viability (nuclei count vs DMSO), 5 days (fraction); higher = more cells survive
Adavosertib + Dasatinib = compound: C=CCn1c(=O)c2cnc(Nc3ccc(N4CCN(C)CC4)cc3)nc2n1-c1cccc(C(C)(C)O)n1 [Adavosertib] + Cc1nc(Nc2ncc(C(=O)Nc3c(C)cccc3Cl)s2)cc(N2CCN(CCO)CC2)n1 [Dasatinib] (partner 0.075 µM)
Summary of the method: (§1)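 Relative viability is defined as nuclei in treated wells over nuclei in vehicle wells. Duplicate plates were run and medians reported. Lung cancer cell lines in 1536-well plates were dosed by pin tool one day after seeding, with one drug or with a fixed anchor-drug dose plus five library-drug doses (not always all listed) in √10 steps, and nuclei were counted after 5 days.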

Adavosertib + Navitoclax = compound: C=CCn1c(=O)c2cnc(Nc3ccc(N4CCN(C)CC4)cc3)nc2n1-c1cccc(C(C)(C)O)n1 [Adavosertib] + CC1(C)CCC(c2ccc(Cl)cc2)=C(CN2CCN(c3ccc(C(=O)NS(=O)(=O)c4ccc(N[C@H](CCN5CCOCC5)CSc5ccccc5)c(S(=O)(=O)C(F)(F)F)c4)cc3)CC2)C1 [Navitoclax] (partner 0.5 µM)
Summary of the method: as §1

Adavosertib + Linsitinib = compound: C=CCn1c(=O)c2cnc(Nc3ccc(N4CCN(C)CC4)cc3)nc2n1-c1cccc(C(C)(C)O)n1 [Adavosertib] + C[C@]1(O)C[C@@H](c2nc(-c3ccc4ccc(-c5ccccc5)nc4c3)c3c(N)nccn32)C1 [Linsitinib] (partner 1 µM)
Summary of the method: as §1

Adavosertib + Trametinib = compound: C=CCn1c(=O)c2cnc(Nc3ccc(N4CCN(C)CC4)cc3)nc2n1-c1cccc(C(C)(C)O)n1 [Adavosertib] + CC(=O)Nc1cccc(-n2c(=O)n(C3CC3)c(=O)c3c(Nc4ccc(I)cc4F)n(C)c(=O)c(C)c32)c1 [Trametinib] (partner 0.02 µM)
Summary of the method: as §1

[1] = compound: C=CCn1c(=O)c2cnc(Nc3ccc(N4CCN(C)CC4)cc3)nc2n1-c1cccc(C(C)(C)O)n1 [Adavosertib] + CC(=O)c1c(C)c2cnc(Nc3ccc(N4CCNCC4)cn3)nc2n(C2CCCC2)c1=O [Palbociclib] (partner 0.5 µM)
Summary of the method: as §1

Cell Line	relative viability (Adavosertib + Dasatinib; first compound 0.01 µM)	relative viability (Adavosertib + Dasatinib; first compound 0.03162 µM)	relative viability (Adavosertib + Dasatinib; first compound 0.1 µM)	relative viability (Adavosertib + Dasatinib; first compound 0.3162 µM)	relative viability (Adavosertib + Navitoclax; first compound 0.01 µM)	relative viability (Adavosertib + Navitoclax; first compound 0.03162 µM)	relative viability (Adavosertib + Navitoclax; first compound 0.1 µM)	relative viability (Adavosertib + Navitoclax; first compound 0.3162 µM)	relative viability (Adavosertib + Linsitinib; first compound 0.01 µM)	relative viability (Adavosertib + Linsitinib; first compound 0.03162 µM)	relative viability (Adavosertib + Linsitinib; first compound 0.1 µM)	relative viability (Adavosertib + Linsitinib; first compound 0.3162 µM)	relative viability (Adavosertib + Trametinib; first compound 0.01 µM)	relative viability (Adavosertib + Trametinib; first compound 0.03162 µM)	relative viability (Adavosertib + Trametinib; first compound 0.1 µM)	relative viability (Adavosertib + Trametinib; first compound 0.3162 µM)	relative viability ([1]; first compound 0.01 µM)	relative viability ([1]; first compound 0.03162 µM)	relative viability ([1]; first compound 0.1 µM)	relative viability ([1]; first compound 0.3162 µM)
201T	0.544	0.524	0.568	0.463	1.24	1.18	1.26	1.18	1.04	0.957	0.941	1.08	0.657	0.707	0.736	0.718	0.336	0.356	0.364	0.367
A549					1.21	1.26	1.26	0.901	0.654	0.553	0.634	0.52								
A-427	0.715	0.709	0.805	0.425	0.94	0.908	0.959	0.895	1.09	1.05	1.05	1.03	0.771	0.808	0.805	0.565	0.517	0.567	0.538	0.52
ABC-1	0.551	0.594	0.677	0.563					1.03	0.849	0.647	0.682					0.736	0.745	0.777	0.896
BEN	0.294	0.295	0.297	0.302	0.0632	0.0724	0.0727	0.0601	0.97	0.886	0.921	1.06	1.02	1	1.27	1.18	0.452	0.434	0.473	0.501
CAL-12T	0.501	0.416	0.438	0.222	1.03	1.33	1.19	1.02	0.822	0.818	0.939	0.944	0.334	0.338	0.312	0.29	0.403	0.492	0.425	0.262
COR-L23	0.63	0.459	0.517	0.239	1.14	1.03	1.14	0.293	0.965	0.904	0.745	0.209	0.622	0.577	0.565	0.251	0.291	0.338	0.274	0.205
COR-L 105	0.285	0.308	0.331	0.246	0.886	0.72	0.746	0.617	0.818	1.13	0.976	0.906	0.436	0.463	0.48	0.347	0.374	0.419	0.415	0.444
Calu-6					0.819	0.898	0.88	0.239	0.906	0.917	1.02	0.866								
ChaGo-K-1	0.641	0.602	0.56	0.535	0.84	0.877	0.934	0.729					0.884	0.844	0.901	0.883	0.884	0.949	1.01	0.885
EBC-1					0.416	0.413	0.448	0.205	0.91	0.962	0.994	1.18								
EKVX	0.534	0.602	0.538	0.52	0.927	0.929	0.944	1.2	0.941	0.966	0.989	1.07	0.327	0.34	0.377	0.401	0.365	0.354	0.344	0.5
EMC-BAC-2	0.333	0.339	0.324	0.261	1.22	1.12	1.2	1.19	0.823	0.798	0.862	0.751		0.938	0.894	0.927		0.542	0.516	0.487
EPLC-272H	0.312	0.339	0.363	0.205	1.09	0.987	0.983	0.861	1.12	1.14	0.958	0.878	0.293	0.309	0.288	0.275	0.331	0.32	0.35	0.317
H3255	0.347	0.382	0.352	0.352	0.374	0.473	0.508	0.447	0.967	1.01	0.993	0.957	0.576	0.591	0.616	0.634	0.317	0.341	0.333	0.32
HARA	0.258	0.249	0.283	0.338	1.11	1.11	1.13	1.1	0.907	1.06	0.98	0.97	0.696	0.729	0.75	0.611	0.21	0.271	0.349	0.265
HCC-15	0.577	0.569	0.574	0.643	0.699	0.712	0.801	0.821	0.878	0.876	1.05	0.989	0.399	0.402	0.377	0.379	0.744	0.706	0.739	0.899
HCC-44					1.02	1.01	1.01	1.06	0.628	0.659	0.683	0.794	1.08	1.05	1.19	1.12	0.989	1.01	1.03	0.966

Cell Line	relative viability (Adavosertib + Dasatinib; first compound 0.01 µM)	relative viability (Adavosertib + Dasatinib; first compound 0.03162 µM)	relative viability (Adavosertib + Dasatinib; first compound 0.1 µM)	relative viability (Adavosertib + Dasatinib; first compound 0.3162 µM)	relative viability (Adavosertib + Navitoclax; first compound 0.01 µM)	relative viability (Adavosertib + Navitoclax; first compound 0.03162 µM)	relative viability (Adavosertib + Navitoclax; first compound 0.1 µM)	relative viability (Adavosertib + Navitoclax; first compound 0.3162 µM)	relative viability (Adavosertib + Linsitinib; first compound 0.01 µM)	relative viability (Adavosertib + Linsitinib; first compound 0.03162 µM)	relative viability (Adavosertib + Linsitinib; first compound 0.1 µM)	relative viability (Adavosertib + Linsitinib; first compound 0.3162 µM)	relative viability (Adavosertib + Trametinib; first compound 0.01 µM)	relative viability (Adavosertib + Trametinib; first compound 0.03162 µM)	relative viability (Adavosertib + Trametinib; first compound 0.1 µM)	relative viability (Adavosertib + Trametinib; first compound 0.3162 µM)	relative viability ([1]; first compound 0.01 µM)	relative viability ([1]; first compound 0.03162 µM)	relative viability ([1]; first compound 0.1 µM)	relative viability ([1]; first compound 0.3162 µM)
HCC-78	0.389	0.44	0.418	0.401	0.81	0.686	0.894	0.79	0.597	0.422	0.522	0.562	0.859	0.737	0.888	0.852	0.531	0.525	0.508	0.428
HCC-366	0.668	0.631	0.736	0.63	0.983	1.07	1.12	1.08	0.62	0.802	0.659	0.774	0.387	0.353	0.352	0.344	0.396	0.388	0.471	0.329
IA-LM					0.821	0.742	0.976	0.668	0.687	0.749	0.692	0.807								
LCLC-103H	0.422	0.44	0.435	0.356					1.07	1.02	1.14	1.07	0.641	0.688	0.668	0.7	0.498	0.478	0.469	0.464
NCI-H358	0.159	0.144	0.149	0.139					0.747	0.675	0.547	0.374	0.132	0.124	0.124	0.124	0.15	0.137	0.0992	0.128
NCI-H522	0.83	0.749	0.944	0.739									0.797	0.75	0.736	0.653	1.02	1.1	1.21	1.06
NCI-H596	0.53	0.656	0.66	0.541	0.897	1.01	1.06	0.742	1.04	1.01	1.01	1.11	0.81	0.79	0.678	0.796				
NCI-H650	0.37	0.494	0.5	0.465					0.785	0.926	0.87	0.712	0.935	1.01	0.942	1.07	0.344	0.372	0.336	0.371
NCI-H661	0.864	0.846	0.75	0.347					0.609	0.648	0.463	0.417	0.686	0.621	0.68	0.486	0.424	0.449	0.464	0.451
NCI-H1299					1.08	1.03	1.06	1.06	0.963	0.985	0.996	0.95								
NCI-H1563	0.462	0.432	0.437	0.466					1.17	1.24	1.18	1.2								
NCI-H1648													0.536	0.473	0.594	0.448	0.311	0.29	0.219	0.244
NCI-H1650	0.306	0.293	0.305	0.216	1.15	1.26	1.25	1.1					0.587	0.616	0.539	0.574	0.295	0.34	0.289	0.293
NCI-H1703					1.27	0.877	1.11	0.157	1.05	0.822	1.01	0.414								
NCI-H2170	0.522	0.48	0.608	0.389	0.605	0.57	0.482	0.313					0.946	0.972	0.831	0.745	0.403	0.419	0.399	0.36
NCI-H2342	0.3	0.345	0.338	0.289									0.922	0.829	0.776	0.848	0.5	0.526	0.509	0.566
SW 900		0.607	0.645	0.36									0.682	0.892	0.957	0.696	0.403	0.633	0.567	0.538
